Values quoted from earlier work as cited in patent US9854827B2, “Sweetener” (Tate & Lyle Ingredients Americas LLC, priority 2013, dated 2018).

Conditions: % of the sweetness of sucrose

SMILES: O=C(CO)C(O)C(O)C(O)CO (stereo not shown) [Allulose, allulose]
- sweetness relative to sucrose: around 70%
